Entries after “also recorded” stand apart in the source; their conditions may differ.
Columns and labels:
Type in all cases: in vivo
[1] = tested on: Rice (cultivar; Nipponbare); test: Rice growth enhancement by seed treatment under low temperature stress; parameters: Average weight of the shoots: unit not given here; details: for Average weight of the shoots: 4° C. for 6 days, 27th day, control 15.4
Method: Rice seeds (cultivar; Nipponbare) were treated with the Compound 1 at dose rates of 0.5 gram to 50 grams per 100 kilogram seeds. Treated rice seeds were sown and cultivated in 2-fold diluted Kimura B hydroponic solution (Plant Science 119:39-47 (1996) in a growth chamber at a temperature of 28° C. (day)/23° C. (night) and a day length of 12 hours for 10 days.
Following hydroponic cultivation for 10 days the plants were exposed to low temperature stress at 4° C. for 6 days at a day length of 12 hours in a growth chamber. After the low temperature stress treatment, the plants were transferred to 4-fold diluted Hoagland's hydroponic solution (California Agricultural Experiment Station 1950 Circular 347 pp. 34) and cultivated for […] at a temperature of 28° C. and a day length of 12 hours. On the 27th day of the sequential hydroponic cultivation, each fresh shoot weight of the plant was measured for 4 replicates.

rice = test: Rice pouch assay: growth of primary root and shoot; details: for Shoot Length: control 1.7
Method: Seeds were placed in germination pouches consisting of germination paper as an insert in a gas-permeable 16×14 cm plastic pouch (CYG Pouch; Mega International, St. Paul, Minn.). In pouch solution evaluation, S-Benzylthiouracil compounds or their salts were dissolved in a small volume of DMSO and added to sterile water with a maximum of 0.5% v/v DMSO at final dilution. The S-Benzylthiouracil solution was subsequently pipetted into the growth pouch, followed by the addition of seeds of the crop being tested. The pouches were arranged in a randomized complete block design in growth racks and placed in 19-liter polycarbonate food storage containers (Rubbermaid Commercial Products, Winchester, Va.). The sealed containers were held in an upright growth cabinet maintained at 25 C with a 12 hour light: 12 hour dark photoperiod. For rice, plants were harvested at 6 d, while in mungbean and corn, the plants were harvested at 4 d post sowing. Measurements were performed on the primary root and shoot of each seedling. The growth of the primary root of rice was examined in the pouch assay system. The results of the testing, presented as percent change in root length across all S-Benzylthiouracil compounds, are shown below.

[2] = tested on: Rice (cultivar; Nipponbare); test: Rice growth enhancement by hydroponic treatment under drought stress
Method: Germinated rice seeds (cultivar; Nipponbare) were cultivated in 2-fold diluted Kimura B hydroponic solution in a growth chamber at a temperature of 28° C. (day)/23° C. (night) and a day length of 12 hours for 14 days. Drought stress was provided by withdrawal of the hydroponic solution from the culture tube for 2 days in a growth chamber at a temperature of 28° C. (day)/23° C. (night) and a day length of 12 hours. After the drought treatment, plants were cultivated in 2-fold diluted Hoagland's hydroponic solution in a growth chamber at a temperature of 28° C. (day)/23° C. (night)) and a day length of 12 hours for 14 days. Then the total fresh weight of the shoots of 5 plants was measured for 3 replicates.
Germinated rice seeds (cultivar; Nipponbare) were cultivated in 2-fold diluted Kimura B hydroponic solution including 1 ppm of the Compound 1 and 0.01% dimethyl sulfoxide in a growth chamber at a temperature of 28° C. (day)/23° C. (night)) and a day length of 12 hours for 14 days. As an untreated control group, the plants were cultivated in the hydroponic solution without Compound 1.
Drought stress was provided by withdrawal of the hydroponic solution from the culture tube for 2 days in a growth chamber at a temperature of 28° C. (day)/23° C. (night) and a day length of 12 hours. After the drought treatment, the treated plants were cultivated in 2-fold diluted Hoagland's hydroponic solution in a growth chamber at a temperature of 28° C. (day)/23° C. (night) and a day length of 12 hours for 14 days, and then total fresh weight of the shoots of 5 plants was examined for 3 replicates.

[3] = tested on: Arabidopsis accession Columbia; test: Arabidopsis petri plate (agar medium) assay, root growth; details: 6 days after sowing, control 3.3
Method: For Arabidopsis, a solid medium was required. Typically, half-strength MS salts were dissolved in water, and 1% (w/v) BactoAgar (DIFCO) was added. Following autoclaving, sterile S-Benzylthiouracil solutions were added to medium prior to pouring 30 mL of agar medium per petri plate. Arabidopsis seeds were sown in a sterile manner, and seeds were germinated and grew on the agar surface until primary root length was measured.
Of increased importance for understanding mode of action, Arabidopsis has become the model system of choice. In Table 20, the effect of Compound 1 in growth medium on root growth of Arabidopsis accession Columbia is shown.

radish cv. Cherry Belle = test: Radish assay, continuous exposure; details: for Root Length / Shoot Length: 6 days; for Root Length: control 3.2; for Shoot Length: control 4.0
Excerpt: In order to determine if a root crop was sensitive to a S-Benzylthiouracil, we tested the effect of Compound 1 on radish cv. Cherry Belle (Table 21).

## Oc1ccnc(SCc2cccc(F)c2)n1 [Compound 1, S-(3-Fluorobenzyl)-2-thiouracil]
[1]; 0.5 grams/100-kg seeds
  Average weight of the shoots: 19.7
[1]; 0.5 grams/100-kg seeds, low temperature stress
  Percent (shoot weight, untreated control = 100): 128%
[1]; 5 grams/100-kg seeds
  Average weight of the shoots: 39.8
[1]; 5 grams/100-kg seeds, low temperature stress
  Percent (shoot weight, untreated control = 100): 258%
[1]; 50 grams/100-kg seeds
  Average weight of the shoots: 34.8
[1]; 50 grams/100-kg seeds, low temperature stress
  Percent (shoot weight, untreated control = 100): 226%
[1]; across 0.5 to 50 grams per 100 kilogram seeds, low temperature stress
  Average fresh shoot weight versus untreated control, in words: larger than that of the untreated control
rice; 10 mg/liter, 6 days after sowing, untreated control 9.67
  Root Length: 10.80 cm
rice; 30 mg/liter, 6 days after sowing, untreated control 9.67
  Root Length: 10.34 cm
rice; 7.5 ppm, 6 days after treatment
  Shoot Length: 2.2 cm
rice; 7.5 ppm, 6 days after treatment, control 5.1
  Root Length: 7.8 cm
rice; 10 ppm (10 mg/L), benzyl ring substitutions, vs control
  Percent Change in Primary Root Length in Rice: 19.8%
rice; 10 ppm, compounds and water-soluble salts, 6 days after sowing
  Percent Change (rice primary root growth): 19.8%
rice; 30 ppm, 6 days after treatment
  Shoot Length: 2.2 cm
rice; 30 ppm, 6 days after treatment, control 5.1
  Root Length: 7.3 cm
rice; 100 ppm, 6 days after treatment
  Shoot Length: 1.9 cm
rice; 100 ppm, 6 days after treatment, control 5.1
  Root Length: 5.2 cm
rice; Oryza sativa, 144 h, 10 ppm (10 mg/L), benzyl ring substitutions, vs control, read-out: Percent Change in Primary Root Length in Rice
  change in vivo at 10 ppm: 19.8%
rice; rice pouch assay, compared to control
  Effect on rice root growth, in words: greatest increases in root length compared to all of the other tested compounds; also recorded: dose-dependent increase in root length
[2]; 1 ppm in hydroponic solution, drought stress
  Percent (shoot weight, untreated control = 100): 112%
[2]; 1 ppm in hydroponic solution, drought stress 2 days, control 0.43
  Average weight of the shoots: 0.48 gram/5 plants
[2]; 1 ppm, drought stress
  Average shoot weight versus untreated control, in words: larger than that of the untreated control
[3]; 0.1 ppm
  Root Length: 3.7 cm
[3]; 0.25 ppm
  Root Length: 4.4 cm
[3]; 0.5 ppm
  Root Length: 3.7 cm
[3]; 1.0 ppm
  Root Length: 3.8 cm
Radish cv. Cherry Belle; 1 ppm
  Root Length: 4.1 cm
  Shoot Length: 4.9 cm
Radish cv. Cherry Belle; 10 ppm
  Root Length: 3.0 cm
  Shoot Length: 3.3 cm
Radish cv. Cherry Belle; continuous exposure
  Effect on radish root and shoot growth, in words: increased root and shoot growth
